Values quoted from earlier work as cited in US20230059204A1, “T[…]-DOSING […] OF PHARMACEUTICAL AGENTS” (PIKE THERAPEUTICS, INC., priority 2021, published 2023).

Test system: serotonin receptors in the brain
Conditions: once ingested

CN(C)CCc1c[nH]c2cccc(OP(=O)(O)O)c12 [psilocybin, [3-(2-dimethylaminoethyl)-1H-indol-4-yl] dihydrogen phosphate]
duration of mind-altering effects: two to six
